Patent publication US20250228239A1, “MOLECULES HAVING PESTICIDAL UTILITY, AND INTERMEDIATES, COMPOSITIONS, AND PROCESSES, RELATED THERETO” (priority 2024, published 2025)
Where two headings read alike, the source gives them in different places.

Legend:
[1] = tested on: Beet Armyworm (Spodoptera exigua, LAPHEG); assay: Bioassays on Beet Armyworm (BAW), 128-well diet tray assay; type: in vivo; details: Spodoptera exigua
Procedure, shortened: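 Eight diet wells per compound were treated at 50 μg/cm^2 (acetone-water 90:10), dried, then infested with 1–5 second-instar larvae each. After five to seven days at 25 °C under 14:10 photoperiod, mortality was scored and averaged across wells.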

[2] = tested on: Cabbage Looper (Trichoplusia ni, TRIPNI); assay: Bioassays on Cabbage Looper (CL), 128-well diet tray assay; type: in vivo; details: Trichoplusia ni
Procedure, shortened: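 Diet tray, 2nd instar, 1–5 larvae/well; 50 μg/cm^2 compound surface-applied (acetone:water 90:10), dried; 8 wells/treatment; 25° C, 14:10 L:D, 5–7 d; % mortality, mean of 8 wells.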

[3] = Table ABC: Biological Results, species BAW, read-out: BAW
[4] = Table ABC: Biological Results, species CL, read-out: CL
[5] = Beet Armyworm, rating class, read-out: BAW
[6] = Cabbage Looper, rating class, read-out: CL

SMILES | pest or weed control at 50 µg/cm2 [1, 3] | pest or weed control at 50 µg/cm2 [2, 4] | pest or weed control at 50 µg/cm2 [1, 5] | pest or weed control at 50 µg/cm2 [2, 6] | also measured
O=C(Nc1ccc(F)c(NC(=O)C(F)F)c1F)c1cc(NC(=O)[C@H]2[C@H](c3cc(Cl)c(F)c(Cl)c3)C2(Cl)Cl)ccc1Cl (relative stereo) [F1331, trans-2-Chloro-5-(2,2-dichloro-3-(3,5-dichloro-4-fluorophenyl)cyclopropane-1-carboxamido)-N-(3-(2,2-difluoroacetamido)-2,4-difluorophenyl)benzamide] | 50 to 100% | 50 to 100% |  |  | 
O=C(Nc1ccc(F)c(NC(=O)C(F)(F)F)c1F)c1cc(NC(=O)[C@H]2[C@H](c3cc(Cl)c(F)c(Cl)c3)C2(Cl)Cl)ccc1Cl (relative stereo) [F1332, trans-2-Chloro-5-(2,2-dichloro-3-(3,5-dichloro-4-fluorophenyl)cyclopropane-1-carboxamido)-N-(2,4-difluoro-3-(2,2,2-trifluoroacetamido)phenyl)benzamide] | 50 to 100% | 50 to 100% |  |  | 
Cc1cc(NCc2ccc(NC(=O)OC(C)(C)C)cc2)ccc1NC(=O)c1cc(NC(=O)[C@H]2[C@H](c3cc(Cl)cc(Cl)c3)C2(Cl)Cl)ccc1Cl (relative stereo) [F1348, trans-tert-Butyl (4-(((4-(2-chloro-5-(2,2-dichloro-3-(3,5-dichlorophenyl)cyclopropane-1-carboxamido)benzamido)-3-methylphenyl)amino)methyl)phenyl)carbamate] | 50 to 100% | 50 to 100% |  |  | 
O=C(Nc1ccc(Cl)c(NC(=O)C(F)(F)F)c1)c1cc(NC(=O)[C@H]2[C@H](c3ccc(F)c(Cl)c3)C2(Cl)Cl)ccc1Cl (relative stereo) [F1366, trans-2-Chloro-N-(4-chloro-3-(2,2,2-trifluoroacetamido)phenyl)-5-(2,2-dichloro-3-(3-chloro-4-fluorophenyl)cyclopropane-1-carboxamido)benzamide] | 50 to 100% | 50 to 100% |  |  | 
Nc1c(Cl)cc(NC(=O)c2cc(NC(=O)[C@H]3[C@H](c4ccc(F)c(Cl)c4)C3(Cl)Cl)ccc2Cl)cc1Cl (relative stereo) [F1367, trans-N-(4-Amino-3,5-dichlorophenyl)-2-chloro-5-(2,2-dichloro-3-(3-chloro-4-fluorophenyl)cyclopropane-1-carboxamido)benzamide] | 50 to 100% | 50 to 100% |  |  | 
N#Cc1cc(NC(=O)c2cc(NC(=O)[C@H]3[C@H](c4ccc(F)c(Cl)c4)C3(Cl)Cl)ccc2Cl)ccc1NC(=O)C(F)(F)F (relative stereo) [F1388, trans-2-Chloro-N-(3-cyano-4-(2,2,2-trifluoroacetamido)phenyl)-5-(2,2-dichloro-3-(3-chloro-4-fluorophenyl)cyclopropane-1-carboxamido)benzamide] | 50 to 100% | 50 to 100% |  |  | 
Nc1c(F)ccc(NC(=O)c2cc(NC(=O)[C@H]3[C@H](c4ccc(F)c(I)c4)C3(Cl)Cl)ccc2Cl)c1F (relative stereo) [F1622, trans-N-(3-Amino-2,4-difluorophenyl)-2-chloro-5-(2,2-dichloro-3-(4-fluoro-3-iodophenyl)cyclopropane-1-carboxamido)benzamide] |  |  | 50 to 100% | 50 to 100% | 
O=C(Nc1ccc(F)c(NC(=O)C(F)F)c1F)c1cc(NC(=O)[C@H]2[C@H](c3cc(Cl)c(Cl)c(Br)c3)C2(Cl)Cl)ccc1Cl (relative stereo) [F1623, trans-5-(3-(3-Bromo-4,5-dichlorophenyl)-2,2-dichlorocyclopropane-1-carboxamido)-2-chloro-N-(3-(2,2-difluoroacetamido)-2,4-difluorophenyl)benzamide] |  |  | 50 to 100% | 50 to 100% | 
O=C(Nc1ccc(F)c(NC(=O)C(F)F)c1F)c1cc(NC(=O)[C@H]2[C@H](c3ccc(F)c(I)c3)C2(Cl)Cl)ccc1Cl (relative stereo) [F1624, trans-2-Chloro-5-(2,2-dichloro-3-(4-fluoro-3-iodophenyl)cyclopropane-1-carboxamido)-N-(3-(2,2-difluoroacetamido)-2,4-difluorophenyl)benzamide] |  |  | 50 to 100% | 50 to 100% | 
CC(=O)Nc1c(F)cc(F)cc1NC(=O)c1cc(NC(=O)[C@H]2[C@H](c3cc(Cl)cc(Cl)c3)C2(Cl)Cl)ccc1Cl (relative stereo) [F1632, trans-N-(2-Acetamido-3,5-difluorophenyl)-2-chloro-5-(2,2-dichloro-3-(3,5-dichlorophenyl)cyclopropane-1-carboxamido)benzamide] |  |  | 50 to 100% | 50 to 100% | 
CC(=O)Nc1cc(F)cc(F)c1NC(=O)c1cc(NC(=O)[C@H]2[C@H](c3cc(Cl)cc(Cl)c3)C2(Cl)Cl)ccc1Cl (relative stereo) [F1633, trans-N-(2-Acetamido-4,6-difluorophenyl)-2-chloro-5-(2,2-dichloro-3-(3,5-dichlorophenyl)cyclopropane-1-carboxamido)benzamide] |  |  | 50 to 100% | 50 to 100% | 
CC(=O)Nc1cc(NC(=O)c2cc(NC(=O)[C@H]3[C@H](c4cc(Cl)cc(Cl)c4)C3(Cl)Cl)ccc2Cl)ccc1F (relative stereo) [F1638, trans-N-(3-Acetamido-4-fluorophenyl)-2-chloro-5-(2,2-dichloro-3-(3,5-dichlorophenyl)cyclopropane-1-carboxamido)benzamide] |  |  | 50 to 100% | 50 to 100% | 
O=C(Nc1cc(F)cc(NC(=O)C(F)(F)F)c1)c1cc(NC(=O)[C@H]2[C@H](c3cc(Cl)cc(Cl)c3)C2(Cl)Cl)ccc1Cl (relative stereo) [F1639, trans-2-Chloro-5-(2,2-dichloro-3-(3,5-dichlorophenyl)cyclopropane-1-carboxamido)-N-(3-fluoro-5-(2,2,2-trifluoroacetamido)phenyl)benzamide] |  |  | 50 to 100% | 50 to 100% | 
O=C(Nc1cc(NC(=O)C(F)(F)F)ccc1F)c1cc(NC(=O)[C@H]2[C@H](c3cc(Cl)cc(Cl)c3)C2(Cl)Cl)ccc1Cl (relative stereo) [F1640, trans-2-Chloro-5-(2,2-dichloro-3-(3,5-dichlorophenyl)cyclopropane-1-carboxamido)-N-(2-fluoro-5-(2,2,2-trifluoroacetamido)phenyl)benzamide] |  |  | 50 to 100% | 50 to 100% | 
O=C(Nc1ccc(F)c(NC(=O)C(F)(F)F)c1)c1cc(NC(=O)[C@H]2[C@H](c3cc(Cl)cc(Cl)c3)C2(Cl)Cl)ccc1Cl (relative stereo) [F1641, trans-2-Chloro-5-(2,2-dichloro-3-(3,5-dichlorophenyl)cyclopropane-1-carboxamido)-N-(4-fluoro-3-(2,2,2-trifluoroacetamido)phenyl)benzamide] |  |  | 50 to 100% | 50 to 100% | 
CCNC(=O)c1cc(NC(=O)[C@H]2[C@H](c3ccc(F)c(Cl)c3)C2(Cl)Cl)cc(F)c1Cl (relative stereo) [F2033, trans-2-Chloro-5-(2,2-dichloro-3-(3-chloro-4-fluorophenyl)cyclopropane-1-carboxamido)-N-ethyl-3-fluorobenzamide] |  |  |  |  | pest or weed control at 50 µg/cm2 ([1]; Beet Armyworm, Table ABC / ABC-DP rating, read-out: BAW rating): 50 to 100%; pest or weed control at 50 µg/cm2 ([2]; Cabbage Looper, Table ABC / ABC-DP rating, read-out: CL rating): 50 to 100%
